Assay results from patent publication US20240082118A1, “TOPICAL COMPOSITIONS AND METHODS OF PREPARING THE SAME” (LANDA LABS (2012) LTD., priority 2021, published 2024).

Test system: skin of pigs' ears
Assay: Ex vivo penetration of fluorescently marked nano-elements into pig ear skin
Assay type: in vitro ADME
Conditions: marker in water, or in water with the surfactants of Composition 2.21
Description: The distribution of nano-elements of the present compositions in various skin layers was tested ex vivo by applying onto the skin of pigs' ears nano-elements including a fluorescent dye (Nile red) allowing histological monitoring of their presence within the layers of the tissue onto which they were applied.
Tested composition (2) was prepared by adding 2 mg of Nile red fluorescent marker during the preparation of the CSSC premix, as described in Example 2.
The compositions were tested on two freshly harvested pig ears, collected on the same day, and kept fresh and cooled till use. The ears were washed with excess saline solution and wiped dry. They were then immobilized for the duration of the study by taping them onto a glass surface, their inner side facing down. Each ear was marked on its outer side with 6 circles having a diameter of about 1 cm.
25 microliters of each one of the samples were applied onto the skin near the center of the marked circle, each tested composition being applied in two or more separate circles for repeats. The ears with the applied test samples were then placed in an oven for an incubation time of 20 hours at a temperature of 32° C., to simulate the pigs' body temperature. […]
The tissue sections were evaluated by an expert for the presence and intensity of the marker using a fluorescence microscope at objective magnification of ×10. […]

Compound: CCN(CC)c1ccc2nc3c4ccccc4c(=O)cc-3oc2c1 [Nile red, 9-(diethylamino)-5H-benzo[a]phenoxazin-5-one]
- penetration of the fluorescent marker into skin without nano-elements: No penetration
